Experimental data from US6818638B2, “Melvinolin derivatives” (Novartis AG, priority 1999, dated 2004).

How the values were obtained:
[1] = biological target: T1, human LFA-1 / human ICAM-1 (Homo sapiens, UniProt P20701); assay: Cell free assay: binding of soluble human ICAM-1 to immobilized human LFA-1; conditions: cell free assay Ai); read-out: IC50, inhibition of adhesion of LFA-1 to ICAM-1
T1 construct: endogenous in cells; ICAM-1-Cκ: made in house in the baculovirus system
Procedure: The assay measures the binding of soluble human ICAM-1 to Immobilized human LFA-1 is purified from JY cells, a human lymphoblastoid B cell-line, by immunoaffinity chromatography as described by Dustin et al. (J. Immunol. 148, 2654-2663, 1992). ICAM-1 mouse Cκ fusion protein (ICAM-1) is produced using the baculovirus system as described by Weitz-Schmidt et al. (Anal. Biochem.238,184-190, 1996).
Purified LFA-1 is diluted 1:20 in phosphate buffered saline (PBS) containing 2 mM MgCl2, pH 7.4 and coated onto microtitre plates (Nunc) at 37° C. for 3h. Plates are blocked with 1% heat-treated BSA in PBS for 2 hours at 37° C. followed by a washing step using PBS, 2 mM MgCl2, 1% fetal calf serum, pH 7.4 (assay buffer). Compounds dissolved at 10 mM in DMSO are diluted in assay buffer and added to the plates. Biotinylated recombinant ICAM-1 in assay buffer (6 μg/ml) is added and allowed to bind at 37° C. for one hour. After incubation, wells are washed with assay buffer. Streptavidin-peroxidase diluted 1:5000 in assay buffer is added and incubated for 45 min at 37° C. Plates are then washed with assay buffer and 2.2′-azino-bis(3-ethylbenzothiazoline-6 sulfonic acid) diammonium salt substrate solution is added to each well. The reaction is stopped after 20 min and bound ICAM-1 is determined by measuring the optical density at 405 nm in a microplate reader.
In this assay, compounds of formula I inhibit adhesion of LFA-1 to ICAM-1 with an IC50≦30 μM, preferably 0.05 to 30 μM.

[2] = test system: Peripheral blood mononuclear cells (PBMC); assay: Human Mixed Lymphocyte Reaction (MLR); type: cell-based; conditions: 2-way reactions, six days, 3H-thymidine, read-out: IC50, 50% inhibition of cell proliferation in MLR
Procedure: Peripheral blood mononuclear cells (PBMC) are isolated from human buffy coats. In each experiment, PBMC from three different donors (A, B, and C) are set up in three individual 2-way reactions (A-B, A-C, B-C). Cells are cocultured for six days and proliferation is determined by pulsing the cells with ^3H-thymidine. The concentration of compounds of formula I which results in 50% inhibition of cell proliferation (IC50) is calculated.

[3] = test system: thioglycollate induced neutrophil migration; assay: Murine Thioglycollate Induced Peritonitis; type: in vivo, mice; conditions: Mus musculus, Neutrophil, po; p.o.; neutrophils in peritoneal lavage after 4 hours; read-out: ED50 in test Bi)
[4] = test system: oxazolone-induced allergic contact dermatitis; assay: Allergic Contact Dermatitis (ACD), oxazolone-sensitized mice; type: in vivo
Procedure: Groups of oxazolone-sensitized mice are challenged with 10 μl of 0.2 or 2.0% oxazolone on the inner surface of the right to eliciate ACD. The low concentration of oxazolone is used for testing compounds on systemic activity whereas the high concentration is applied for topical testing. The unchallenged left ears serve as normal controls and dermatitis is evaluated from the individual differences in pinnal weight, which is taken as a measure of increase in inflammatory swelling 24 h after the challenge. Dermatitis is evaluated in test- and for comparison in control groups. The test groups are treated with the test compounds either orally (twice, 2 h and immediately before challenge), subcutaneously (immediately before challenge) or topically (30 min after challenge at the site of elicitation of the ACD); the controls are treated similarly with the vehicles alone. For oral and subcutaneous administration the compounds are administered in an oil in water emulsion, for topical administration the compounds are prepared in a mixture of ethanol, acetone and dimethylacetamide. The data of the test- and the vehicle-treated control groups are statistically analysed by ANOVA followed by Dunnet T-test (normal distribution or data) or by H and U-test, respectively. […]

T1 sequence (P20701 26-1170): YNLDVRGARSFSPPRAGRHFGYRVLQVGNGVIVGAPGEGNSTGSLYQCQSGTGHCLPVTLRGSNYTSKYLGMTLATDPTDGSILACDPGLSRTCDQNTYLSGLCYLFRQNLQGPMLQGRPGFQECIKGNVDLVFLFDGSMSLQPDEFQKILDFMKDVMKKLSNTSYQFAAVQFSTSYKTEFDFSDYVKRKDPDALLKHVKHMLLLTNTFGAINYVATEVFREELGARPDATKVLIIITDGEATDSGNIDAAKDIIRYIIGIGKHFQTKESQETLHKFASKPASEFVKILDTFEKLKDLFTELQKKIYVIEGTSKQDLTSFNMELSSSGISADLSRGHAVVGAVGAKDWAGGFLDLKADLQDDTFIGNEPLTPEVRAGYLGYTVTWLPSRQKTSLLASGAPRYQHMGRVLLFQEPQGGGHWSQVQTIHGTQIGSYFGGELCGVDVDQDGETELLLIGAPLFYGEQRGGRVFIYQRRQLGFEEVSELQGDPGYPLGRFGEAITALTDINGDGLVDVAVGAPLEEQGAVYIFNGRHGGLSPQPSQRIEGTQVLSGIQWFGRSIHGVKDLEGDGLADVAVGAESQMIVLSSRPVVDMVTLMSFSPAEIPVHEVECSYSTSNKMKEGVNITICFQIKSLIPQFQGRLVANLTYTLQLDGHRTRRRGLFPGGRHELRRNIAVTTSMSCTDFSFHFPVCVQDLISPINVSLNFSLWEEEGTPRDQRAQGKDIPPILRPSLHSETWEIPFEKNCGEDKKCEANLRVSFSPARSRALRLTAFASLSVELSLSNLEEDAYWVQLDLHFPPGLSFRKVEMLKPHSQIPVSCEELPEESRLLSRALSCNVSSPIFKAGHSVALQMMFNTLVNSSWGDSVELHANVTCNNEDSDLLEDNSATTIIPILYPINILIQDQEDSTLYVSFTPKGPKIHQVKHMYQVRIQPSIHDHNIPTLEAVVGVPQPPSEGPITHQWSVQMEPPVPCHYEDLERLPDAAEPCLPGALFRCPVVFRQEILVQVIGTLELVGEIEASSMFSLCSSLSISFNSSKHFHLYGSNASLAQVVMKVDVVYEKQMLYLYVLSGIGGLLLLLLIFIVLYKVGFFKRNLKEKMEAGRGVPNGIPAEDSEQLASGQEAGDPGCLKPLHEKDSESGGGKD
T1 sequence (P05107 23-769 partner): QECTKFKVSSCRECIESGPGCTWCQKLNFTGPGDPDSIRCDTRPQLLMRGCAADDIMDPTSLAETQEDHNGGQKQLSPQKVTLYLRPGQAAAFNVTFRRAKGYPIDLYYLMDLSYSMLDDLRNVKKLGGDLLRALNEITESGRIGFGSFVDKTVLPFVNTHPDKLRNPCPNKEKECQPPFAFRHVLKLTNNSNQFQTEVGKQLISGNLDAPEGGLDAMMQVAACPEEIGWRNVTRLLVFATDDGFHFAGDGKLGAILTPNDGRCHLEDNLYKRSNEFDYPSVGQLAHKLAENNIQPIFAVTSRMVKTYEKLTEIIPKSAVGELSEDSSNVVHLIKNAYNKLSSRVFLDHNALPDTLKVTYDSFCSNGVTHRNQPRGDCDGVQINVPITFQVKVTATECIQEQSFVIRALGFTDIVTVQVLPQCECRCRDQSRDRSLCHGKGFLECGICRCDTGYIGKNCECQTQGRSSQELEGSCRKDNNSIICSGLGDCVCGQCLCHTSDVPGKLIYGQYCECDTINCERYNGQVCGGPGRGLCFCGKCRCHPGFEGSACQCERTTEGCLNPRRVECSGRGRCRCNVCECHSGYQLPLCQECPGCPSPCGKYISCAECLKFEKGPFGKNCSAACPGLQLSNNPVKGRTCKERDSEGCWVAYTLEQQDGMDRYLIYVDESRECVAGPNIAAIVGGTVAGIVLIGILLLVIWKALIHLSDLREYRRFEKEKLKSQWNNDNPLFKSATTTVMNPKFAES

Compound | IC50 [1] [nM] | IC50 [2] [nM] | ED50 [3] [µg/kg] | inhibiting effect in ACD ([4]; p.o. at a dose of 2×3 mg/kg) [%] | inhibition of inflammatory swelling in ACD ([4]; 2x 1 mg/kg p.o.) [%]
CC[C@H](C)C(=O)O[C@H]1C[C@@H](C)C=C2C=C[C@H](C)[C@H](CC[C@@H]3C[C@H](CC(=O)NC)N(Cc4ccc(O)c(OC)c4)C(=O)O3)[C@H]21 [Ex. 2] | 50 | 200 | 0.1 | 41 | 
CC[C@H](C)C(=O)O[C@H]1C[C@@H](C)C=C2C=C[C@H](C)[C@H](CC[C@H]3C[C@@H](O)CC(=O)N3Cc3ccc4c(CO)c(OC)ccc4c3)[C@H]21 [Ex. 34, (S)2-Methyl-butyric acid (1S,3R,7S,8S,8aR)-8-{2-[(2S,4R)4-hydroxy-1-(5-hydroxymethyl-6-methoxy-naphthalen-2-ylmethyl)-6-oxo-piperidin-2-yl]-ethyl}-3,7-dimethyl-1,2,3,7,8,8a-hexahydro-naphthalen-1-yl ester] | 190 |  |  |  | 41
CC[C@H](C)C(=O)O[C@H]1C[C@@H](C)C[C@@H]2CC[C@H](C)[C@H](CC[C@@H](O)C[C@@H](O)CC(=O)NCc3ccc(OC)c(OC)c3)[C@H]21 [compound 28, (S)-2-Methyl-butyric acid (S)-(3S,4aS,7S,8S,8aS)-8-[(3R,5)6-(3,4-dimethoxy-benzylcarbamoyl)-3,5-dihydroxy-hexyl]-3,7-dimethyl-decahydro-naphthalen-1-yl ester] | 790 |  |  |  | 
